Patent US20230098403A1, “MAGNETIC RESONANCE IMAGING CONTRAST AGENT, PREPARATION METHOD AND USE THEREOF” (GUANGZHOU PINGLAN MEDICAL TECHNOLOGY CO., LTD., priority 2020, published 2023)

Tested on: QSG7701 hepatocyte line
Assay: Hepatocyte toxicity test (MTT)
Assay type: cell-based, human
Experimental: One or two days later, when the cell density meet the requirements of passage (the cell growth rate reaches 80-90%), the cells were washed 1 to 2 times with PBS, and then PBS was removed and 1 mL trypsin was added to completely cover the surface of the cells for 1 to 2 minutes, followed by observing under an inverted microscope. When more than 90% of the cells have become large and round and could be shaken gently to remove a little, complete medium (DMEM medium:FBS:antibiotic=100:10:1) was immediately added to stop digestion. The cells were blow and separated, transferred to a 15 mL centrifuge tube, which was centrifuged at 1000 rpm for 5 min at room temperature, then the supernatant was removed. The cells were transferred to a […] petri dish, 5 to 10 ml fresh complete medium was added for further culture. Culture medium was changed after 2-3 days or subcultured in a ratio of 1:2 and 1:3.
2) Cryopreservation: when the cells were in the logarithmic growth phase and the growth state was good, cryopreservation was selected and a cryopreservation solution (DMEM:FBS:DMSO=6:3:1) was prepared as above, the cells were collected after stopping digestion and centrifuging in a centrifuge tube. The cells were suspended in the cryopreservation solution, the cell concentration (lx 10^6/mL to 10×10^6/mL) were adjusted and then the cells were divided into cryopreservation tubes, the cell type, date, cryopreserved person, and passage times were recorded. The tubes were placed in a gradient freezer box in a −80° C. freezer and transferred to a liquid nitrogen tank for storage the next day.
3) Cell recovery: a cryovial containing QSG7701 was taken out from the liquid nitrogen tank and put in a 37° C. water bath for 1 to 2 minutes and shaken quickly to thaw. The thawed cell fluid was transferred to a 15 mL centrifuge tube, centrifuged at 1000 rpm for 5 min at room temperature, then the supernatant was removed, and 5 to 10 mL fresh complete culture medium was added into it, the cell type, date, and the name of the culture person were recorded, the cells were cultured in a 37° C. incubator with 5% CO2. […]
4) Finally, the 96-well plate was taken out, the medium was removed, and 100 μl DMSO was added to the plate, shaken horizontally and mixed for 2-3 minutes to fully dissolve the crystals, and the OD value was read at the detection line of 595 nm with a microplate reader.
Origin 9.0 software was used for data mapping, and measurement data were expressed as mean±standard deviation (±sd); SPSS14.0 statistical software was used for data statistics, and univariate analysis was used.

O=C([O-])CN(CP(=O)([O-])O)C1CCCCC1N(CC(=O)[O-])CP(=O)([O-])O.[Mn+2].[Na+].[Na+] (stereo not shown) [KBR0826]
survival rate of the QSG7701 hepatocyte line (0.02 mmol/L, 0.1 mmol/L or 0.5 mmol/L, each detection time point (6 h, 12 h, 24 h, 48 h), MTT, OD 595 nm): does not decrease significantly
survival rate of the QSG7701 hepatocyte line (2.5 mmol/L, 24 h and 48 h, p<0.05): decrease significantly
survival rate of the QSG7701 hepatocyte line (12.5 mmol/L, at 12 h, p<0.05): decreases significantly
inhibitory effect on the proliferation of QSG7701 hepatocyte line (within 24 hours, 25 times of the clinical dose (2.5 mmol/L)): non-obvious inhibitory effect
